pIC50, pKi: −log10 of the molar value. Where “and” joins values, the source holds several entries; their conditions need not be identical. Equal values may be shown once.
What was measured:
[1] = molecular target: T1, Human immunodeficiency virus type 1 protease (Human immunodeficiency virus 1, UniProt Q72874); assay: Inhibitory concentration against HIV-1 protease expressed in Escherichia coli upon incubation in pH 5.5 buffer containing Abz-Thr-Ile-p-nitrophenylalanine-Phe-Gln-Arg-NH2
[2] = molecular target: T1, Human immunodeficiency virus type 1 protease; assay: Binding affinity for HIV-1 protease expressed in Escherichia coli upon incubation in pH 5.5 buffer containing Abz-Thr-Ile-p-nitrophenylalanine-Phe-Gln-Arg-NH2
Cathepsin D = Cathepsin D (Homo sapiens, UniProt P07339); assay: Binding affinity af the compound towards cathepsin D

SMILES | pIC50 [1] | pKi [2] | pKi (Cathepsin D)
COc1cc(Br)c(C(=O)N[C@@H](Cc2cccc(Br)c2)[C@H](O)C[C@H](CCc2ccc(Cl)cc2Cl)S(=O)(=O)c2ccc(F)cc2)cc1OC | 5.35 | 5.51 | 
O=C(COc1ccc(Cl)cc1Cl)N[C@@H](Cc1cccc(Br)c1)[C@H](O)C[C@H](CCc1ccc(Cl)cc1Cl)S(=O)(=O)c1ccc(F)cc1 | 5.00 | 5.15 | 
O=C(N[C@H](Cc1cccc(Br)c1)[C@@H](O)C[C@@H](CCc1ccc(Cl)cc1Cl)S(=O)(=O)c1ccc(F)cc1)[C@H]1CCCO1 | < 4.40 | < 4.40 | 
CC(C)CCS(=O)(=O)[C@@H](C)C[C@@H](O)[C@H](Cc1cccc(Br)c1)NC(=O)CCS(C)(=O)=O | < 4.40 | < 4.40 | 
Cc1cccc(C)c1OCC(=O)N[C@@H](Cc1cccc(Br)c1)[C@H](O)C[C@H](CC(C)C)S(=O)(=O)c1ccc(N(C)C)cc1 | 6.10 | 6.27 | 
O=C(N[C@@H](Cc1cccc(Br)c1)[C@H](O)C[C@H](CCc1ccc(Cl)cc1Cl)S(=O)(=O)c1ccc(F)cc1)[C@H]1CCCO1 |  | 5.41 and 5.54 | 
Cc1cccc(C)c1OCC(=O)N[C@@H](Cc1cccc(Br)c1)[C@H](O)C[C@H](CC(C)C)S(=O)(=O)c1ccc(F)cc1 | 6.85 and 7.07 | 7.10 and 7.35 | 
Cc1cccc(C)c1OCC(=O)N[C@H](Cc1cccc(Br)c1)[C@@H](O)C[C@@H](CC(C)C)S(=O)(=O)c1ccc(F)cc1 | 5.70 | 5.85 | 
CC(C)CN(C[C@@H](O)[C@H](Cc1ccccc1)NC(=O)O[C@H]1CCOC1)S(=O)(=O)c1ccc(N)cc1 [AMPRENAVIR] |  | 10.22 | 
CNc1ccc(S(=O)(=O)[C@@H](CC(C)C)C[C@@H](O)[C@H](Cc2cccc(Br)c2)NC(=O)COc2c(C)cccc2C)cc1 | 6.28 | 6.43 | 
COc1cc(Br)c(C(=O)N[C@@H](Cc2cccc(Oc3ccccc3)c2)[C@@H](O)CN(CCc2ccc(Cl)cc2Cl)C(=O)CCN2C(=O)c3ccccc3C2=O)cc1OC |  |  | 10.15
